Experimental data: patent publication US20240226048A1, “METHODS OF TREATMENT USING BEMPEDOIC ACID” (Esperion Therapeutics, Inc., priority 2023, published 2024)

Experiment: CLEAR OUTCOMES trial: adverse events and safety laboratory findings
Format: in vivo, human
Conditions: for Any muscle disorder, %: prespecified adverse event of special interest
Description: The CLEAR OUTCOMES trial was a randomized, placebo-controlled, double-blind trial that enrolled patients at 1250 sites in 32 countries. An independent Data Monitoring Committee reviewed safety and efficacy data during the trial. Patients 18 to 85 years of age were eligible for enrollment if they met either of two criteria for increased cardiovascular risk, a prior cardiovascular event (secondary prevention) or clinical features that placed them at high risk for a cardiovascular event (primary prevention). (Nicholls […], Bays H E, et al. Rationale and design of the CLEAR-outcomes trial: Evaluating the effect of bempedoic acid on cardiovascular events in patients with statin intolerance. Am Heart J. 2021 May; 235: 104-112) All patients provided written informed consent. Patients had to report statin intolerance due to an adverse effect that started or increased during statin therapy and resolved or improved after statin therapy was discontinued. Patients could be enrolled if they tolerated a very low average daily statin dose (e.g., an average daily dose of rosuvastatin <5 mg, atorvastatin <10 mg, simvastatin <10 mg, lovastatin <20 mg, pravastatin <40 mg, fluvastatin <40 mg, or pitavastatin <2 mg). Other lipid-lowering therapies were permitted, including ezetimibe, niacin, bile acid resins, fibrates, and/or proprotein convertase subtilisin kexin type 9 (PCSK9) inhibitors. Full inclusion and exclusion criteria are provided in Nicholls et al. (Am Heart J. 2021). Eligible patients entered a 4-week run-in period during which patients were treated with single-blind placebo. If patients were intolerant to placebo treatment or if adherence was <80% by tablet count, they were not eligible for randomization. […] Beginning 6 months after enrollment, the central laboratory notified the investigator if the patient's LDL-cholesterol level was ≥25% higher than baseline. These patients were counseled on healthy dietary guidelines and reminded to take all lipid-regulating medications. If repeat testing confirmed that LDL-cholesterol value met the threshold criteria, the provider could adjust the lipid-lowering treatment regimen per standard of care and local guidelines.

[1] = N = 7001, listed as bempedoic acid
[2] = at any visit, repeated and confirmed, N = 7001

CC(C)(CCCCCC(O)CCCCCC(C)(C)C(=O)O)C(=O)O [Bempedoic Acid, Bempedoic acid]
Adverse event leading to drug discontinuation, % (180 mg oral daily, N = 7001): (11.0) % | Any treatment emergent adverse event, % (180 mg oral daily, N = 7001): (86.3) % | Serious treatment emergent adverse event, % (180 mg oral daily, N = 7001): (25.4) % | Adjudicated tendon rupture, % (N = 7001): (1.2) % | Atrial fibrillation, % (N = 7001): (3.3) % | Cholelithiasis, % (N = 7001): (2.2) % | Discontinuation of treatment due to myalgia, % (N = 7001): (1.8) % | Elevated hepatic enzymes, % (N = 7001): (4.5) % | Gout, % (N = 7001): (3.1) % | Hyperuricemia, % (N = 7001): (10.9) % | Hypoglycemia, % (N = 7001): (4.3) % | Malignancies, % (N = 7001): (4.7) % | Metabolic acidosis, % (N = 7001): (0.2) % | Myalgia, % (N = 7001): (5.6) % | Neurocognitive disorders, % (N = 7001): (0.8) % | Renal impairment, % (N = 7001): (11.5) % | Tendinopathies, % (N = 7001): (1.7) % | Cholelithiasis, % [1]: 2.2% | Elevated hepatic enzymes, % [1]: 4.5% | Gout, % [1]: 3.1% | Hyperuricemia, % [1]: 10.9% | Renal impairment, % [1]: 11.5% | Change from baseline in creatinine levels (after 6 months, mean): 0.05 mg/dL | Change from baseline in uric acid levels (after 6 months, mean): 0.76 mg/dL | Change from baseline in glycated hemoglobin level (%) (after 12 months, not a prespecified safety measure): 0.04% | Creatine kinase levels >5x ULN (repeated and confirmed), % (at any visit, N = 7001): (0.1) % | Creatine kinase levels >5x ULN (single occurrence), % (at any visit, N = 7001): (0.6) % | Alanine aminotransferase level >3 times ULN, % [2]: (1.2) % | Aspartate aminotransferase level >3 times ULN, % [2]: (1.1) % | tolerability of treatment (discontinuation rates similar to placebo): well tolerated | Worsening hyperglycemia, % (in patients with diabetes at baseline): (22.7) % | Mean changes in creatinine and uric acid from baseline compared with placebo (in vivo): larger | New onset diabetes in patients with normoglycemia at baseline, % (in vivo): (5.5) % | New onset diabetes in patients with pre-diabetes at baseline, % (in vivo): (19.5) % | New onset diabetes in patients without diabetes at baseline, % (in vivo): (16.1) % | Rates of liver transaminase elevations >3×ULN compared with placebo (in vivo): more frequent | Any muscle disorder, % (N = 7001): (15.0) % | Any muscle disorder, % [1]: 15.0% | between group differences in overall rates of adverse events, serious adverse events, or adverse events leading to drug discontinuation (vs placebo): not clinically meaningful between group differences | other prespecified adverse events of special interest (diabetes, hypoglycemia, metabolic acidosis, neurocognitive disorders, atrial fibrillation, tendinopathies, malignancies) (vs placebo): no differences
